Reference: PMC8300687, “A Fine-Tuned Lipophilicity/Hydrophilicity Ratio Governs Antibacterial Potency and Selectivity of Bifurcated Halogen Bond-Forming NBTIs” (Antibiotics, 2021)
≈ marks a conversion by molar mass, not a printed value. Where two headings read alike, the source gives them in different places.

Key:
[1] = target: T1, S. aureus DNA gyrase (Staphylococcus aureus, UniProt P20831); conditions: cited from earlier work
T1 construct: purchased Inspiralis (Norwich, UK)

[2] = test system: E. coli; set-up: method as in PMID 31140866; conditions: Figure 2, previous study ref 18; cited from earlier work
[3] = test system: S. aureus; set-up: method as in PMID 31140866; conditions: Figure 2, previous study ref 18; cited from earlier work
[4] = in vitro; conditions: PAMPA
Method: (§1) Prior to the measurements of solubility and permeability isocratic HPLC methods were developed. […] The individual method parameters for each compound are given in the Supplementary Materials Table S1.
A 96-well precoated three-layer PAMPA plates (Corning® Gentest™ Pre-coated PAMPA Plate System, Corning, NY, USA) were used according to the manufacturer’s instructions and as described previously with 300 µL of the donor solutions in the bottom compartment and 200 µL of the acceptor solution (pH 7.4 PBS) in the upper compartment at 37 °C and a 4-h incubation time. The initial and end donor solutions were injected at a 5 µL injection volume. The initial donor solutions were also diluted 100-fold and injected at a 100 µL injection volume to serve as external references for the end acceptor solutions which were injected at the same injection volume. The permeability calculations were made with a manufacturer-provided Excel spreadsheet directly from the measured peak areas accounting for the relevant dilutions and injection volumes.

[5] = Equilibrium solubility at pH 6.8; conditions: 37 °C, pH 6.8, aqueous buffer, thermodynamic from solid
Method: as §1
The vials were then placed in a homogenizer (Next Advance Bullet Blender, Troy, NY, USA) for 5 min ad speed setting “2” after which they were kept in a thermostated shaker (Tehtnica HeatMix, Domel, Slovenia) at 37 °C and 1200 RPM for 24 h. […] Twenty µL of these solutions were injected for the HPLC analysis by the described methods (Supplementary Materials Table S1). External standards for calibration were made in a mobile phase with 5% acetonitrile in a range of 30–90 mg/L and injected at 20 µL injection volumes.

[6] = test system: E. coli (ATCC 25922); assay: MIC broth microdilution, E. coli ATCC 25922; type: cell-based; conditions: Escherichia coli, ATCC25922; read-out: MIC E. coli (ATCC 25922)
Method: (§2) Antimicrobial testing was carried out by the broth microdilution method in 96-well plate format following the Clinical and Laboratory Standards Institute (CLSI) guidelines and European Committee on Antimicrobial Susceptibility Testing (EUCAST) recommendations. Bacterial suspension of specific bacterial strain equivalent to 0.5 McFarland turbidity standard was diluted with cation-adjusted Mueller Hinton broth with TES (Thermo Fisher Diagnostic, Landsmeer, The Netherlands), to obtain a final inoculum of 10^5 CFU/mL. Compounds dissolved in DMSO and inoculum were mixed together and incubated for 18–20 h at 35 °C. Suspensions of Mycobacterium sp. were prepared into a tube of Middelbrook 7H9 broth supplemented with 5% OADC (Thermo Scientific, Trek Diagnostic Systems, West Sussex, UK) and incubated for at least 10 days. After incubation the minimal inhibitory concentration (MIC) values were determined by visual inspection as the lowest dilution of compounds showing no turbidity. Tetracycline was used as a positive control on every assay plate.

[7] = test system: E. coli N43 (CGSC# 5583); assay: MIC broth microdilution, E. coli N43; type: cell-based; conditions: Escherichia coli, read-out: MIC E. coli N43 (CGSC# 5583)
Method: as §2

T1 sequence (P20831 whole entry): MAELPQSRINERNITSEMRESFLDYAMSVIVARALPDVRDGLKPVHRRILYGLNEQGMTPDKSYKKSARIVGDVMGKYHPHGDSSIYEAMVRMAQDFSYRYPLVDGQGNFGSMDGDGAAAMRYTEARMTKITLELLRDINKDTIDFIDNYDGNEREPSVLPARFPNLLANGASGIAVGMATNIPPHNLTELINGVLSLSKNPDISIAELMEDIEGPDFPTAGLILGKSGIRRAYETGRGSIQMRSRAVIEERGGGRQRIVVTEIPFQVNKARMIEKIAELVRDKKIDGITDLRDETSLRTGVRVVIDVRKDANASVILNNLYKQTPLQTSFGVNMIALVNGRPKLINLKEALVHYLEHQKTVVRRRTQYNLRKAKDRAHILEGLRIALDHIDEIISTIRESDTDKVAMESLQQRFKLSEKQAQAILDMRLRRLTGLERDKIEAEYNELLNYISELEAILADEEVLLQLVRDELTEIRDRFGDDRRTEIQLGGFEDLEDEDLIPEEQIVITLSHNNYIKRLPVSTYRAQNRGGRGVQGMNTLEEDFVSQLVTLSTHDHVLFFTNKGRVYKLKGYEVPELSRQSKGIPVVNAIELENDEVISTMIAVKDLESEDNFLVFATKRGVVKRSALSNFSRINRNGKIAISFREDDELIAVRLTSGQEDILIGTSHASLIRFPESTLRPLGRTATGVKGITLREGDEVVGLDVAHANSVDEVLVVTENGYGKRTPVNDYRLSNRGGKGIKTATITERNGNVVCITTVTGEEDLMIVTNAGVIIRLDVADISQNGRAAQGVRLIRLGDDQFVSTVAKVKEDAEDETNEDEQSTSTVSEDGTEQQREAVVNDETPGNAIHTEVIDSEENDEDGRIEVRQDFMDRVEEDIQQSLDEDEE
T1 sequence (P0A0K8 whole entry partner): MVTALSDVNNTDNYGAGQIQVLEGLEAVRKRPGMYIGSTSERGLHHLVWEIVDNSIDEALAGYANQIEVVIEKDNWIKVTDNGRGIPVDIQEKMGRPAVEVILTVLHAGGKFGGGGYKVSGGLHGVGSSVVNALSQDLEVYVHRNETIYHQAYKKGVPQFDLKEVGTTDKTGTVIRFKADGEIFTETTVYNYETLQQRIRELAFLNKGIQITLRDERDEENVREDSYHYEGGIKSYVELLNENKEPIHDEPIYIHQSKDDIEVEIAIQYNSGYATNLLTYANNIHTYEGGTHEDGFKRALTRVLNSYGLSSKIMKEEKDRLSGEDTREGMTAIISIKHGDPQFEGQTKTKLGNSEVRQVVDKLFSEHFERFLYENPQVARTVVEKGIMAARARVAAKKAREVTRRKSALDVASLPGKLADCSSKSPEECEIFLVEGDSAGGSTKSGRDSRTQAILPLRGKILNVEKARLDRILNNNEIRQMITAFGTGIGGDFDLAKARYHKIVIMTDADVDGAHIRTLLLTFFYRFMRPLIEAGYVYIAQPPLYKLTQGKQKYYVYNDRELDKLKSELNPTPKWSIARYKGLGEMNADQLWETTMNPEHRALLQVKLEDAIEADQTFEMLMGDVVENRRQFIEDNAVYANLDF

## COc1ccc2ncc(F)c(C[C@H](O)[C@@H]3CC[C@@H](NCc4cc5c(nn4)OCCS5)CO3)c2n1 [ACT3870424]
[1]; Table S2, supplement ref 4
  IC50: 125 nM

## COc1ccc2nccc(NC(=O)C3CCC(NCc4cnn(-c5ccccc5)c4)CC3)c2c1 (stereo not shown) [Compound 131]
[2]
  MIC E. coli: 64 µg/mL (≈ 140 µM)
[1]; Table S2, supplement ref 1
  IC50: 830 nM
[3]
  MIC S. aureus: 2 µg/mL (≈ 4.39 µM)

## C[C@H]1O[C@@H](O[C@H]2[C@@H](O)C[C@H](O[C@H]3[C@@H](O)C[C@H](O[C@H]4CC[C@@]5(C)[C@H](CC[C@@H]6[C@@H]5C[C@@H](O)[C@]5(C)[C@@H](C7=CC(=O)OC7)CC[C@]65O)C4)O[C@@H]3C)O[C@@H]2C)C[C@H](O)[C@@H]1O [Di goxin, digoxin, reference compound]
[4]
  PAMPA permeability classification [low/high]: int erm ediat e
[4]; pH 7.4
  Papp: 0.58 ×10⁻⁶ cm/s
[5]
  solubility thermodynamic at 24 h: 52 µg/mL (≈ 66.6 µM)

## O=c1ccc2ncc(=O)n3c2n1C[C@H]3CN1CCC(NCc2cc3c(cn2)OCCC3)CC1 [Gepotidacin, reference compound]
[6]
  MIC: 1 µg/mL (≈ 2.23 µM)
[7]
  MIC: 0.016 µg/mL (≈ 0.0357 µM)

## COCCc1ccc(OCC(O)CNC(C)C)cc1 (stereo not shown) [Metoprolol, metoprolol, reference compound]
[4]
  Papp at 4 h: > 2.7 ×10⁻⁶ cm/s
[4]; pH 7.4
  Papp at 4 h: 4.2 ×10⁻⁶ cm/s
[5]
  solubility thermodynamic at 24 h: 30400 µg/mL (≈ 114000 µM)

## Cn1c(=O)c2[nH]cnc2n(C)c1=O [Theophylli n, theophylline, reference compound]
[5]
  solubility thermodynamic at 24 h: 8220 µg/mL (≈ 45600 µM)
